In patent publication US20240124465A1, “MOLECULES AND METHODS RELATED TO TREATMENT OF DISORDERS ASSOCIATED WITH JAK-2 SIGNALING DYSFUNCTION” (ST. JUDE CHILDREN'S RESEARCH HOSPITAL, priority 2020, published 2024):
pEC50: −log10 of the molar value.

Columns and labels:
Type in all cases: cell-based
[1] = target: T1, JAK3 (Homo sapiens, UniProt P52333); assay: Western blot assay, JAK3 protein degradation; details: MHHCALL4; 100 nM, 24 h; MHH-CALL-4 cells; vehicle control = 100%; read-out: Target Protein Degradation (% remaining at 100 nM, 24 h) JAK3
T1 construct: endogenous in cells; host or cells: MHH-CALL-4
T1 sequence (P52333 1-1124): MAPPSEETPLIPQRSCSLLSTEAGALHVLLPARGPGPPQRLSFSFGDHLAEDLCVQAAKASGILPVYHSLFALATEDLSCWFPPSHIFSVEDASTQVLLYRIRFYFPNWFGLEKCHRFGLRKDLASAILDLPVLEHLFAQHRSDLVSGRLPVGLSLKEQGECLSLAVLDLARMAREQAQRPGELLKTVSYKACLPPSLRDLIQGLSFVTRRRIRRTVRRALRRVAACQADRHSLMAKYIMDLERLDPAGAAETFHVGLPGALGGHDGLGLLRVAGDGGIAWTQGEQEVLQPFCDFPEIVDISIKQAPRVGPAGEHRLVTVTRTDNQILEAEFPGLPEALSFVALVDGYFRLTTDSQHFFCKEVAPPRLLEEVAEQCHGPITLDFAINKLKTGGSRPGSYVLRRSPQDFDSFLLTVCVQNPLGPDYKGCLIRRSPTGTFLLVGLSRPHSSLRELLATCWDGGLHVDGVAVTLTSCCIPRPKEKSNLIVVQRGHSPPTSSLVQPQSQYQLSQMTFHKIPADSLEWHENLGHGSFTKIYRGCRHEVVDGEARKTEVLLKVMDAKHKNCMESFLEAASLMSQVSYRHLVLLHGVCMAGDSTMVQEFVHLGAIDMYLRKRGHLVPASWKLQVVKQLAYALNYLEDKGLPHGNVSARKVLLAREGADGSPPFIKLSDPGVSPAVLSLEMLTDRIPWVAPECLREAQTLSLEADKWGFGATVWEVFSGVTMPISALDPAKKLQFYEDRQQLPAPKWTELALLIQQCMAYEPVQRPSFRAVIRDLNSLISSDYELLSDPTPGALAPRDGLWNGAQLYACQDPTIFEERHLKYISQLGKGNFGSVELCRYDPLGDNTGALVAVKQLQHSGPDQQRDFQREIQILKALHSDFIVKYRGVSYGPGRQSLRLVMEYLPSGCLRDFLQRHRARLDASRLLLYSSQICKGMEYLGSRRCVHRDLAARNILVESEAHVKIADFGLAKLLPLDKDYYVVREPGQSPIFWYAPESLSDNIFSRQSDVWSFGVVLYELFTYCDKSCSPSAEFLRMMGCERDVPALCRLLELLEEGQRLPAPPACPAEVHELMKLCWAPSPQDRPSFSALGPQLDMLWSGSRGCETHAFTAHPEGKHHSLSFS
Protocol: (§1) Western blot assay: MHH-CALL-4 Cells were washed twice with ice-cold PBS and lysed in RIPA lysis buffer (Sigma) freshly supplemented with Halt™ Protease Inhibitor Cocktail (ThermoFisher) for 15 minutes on ice. The cell pellet was removed by centrifugation at 13,000 g at 4° C. for 15 minutes. Protein concentration was measured by BCA assay (Thermo Fisher Scientific). Proteins were denatured in NuPAGE LDS 4× sample buffer supplemented with reducing agents (Invitrogen). Typically, 10-20 μg of total protein was loaded per lane on a 4%-12% NUPAGE Bis-Tris gradient gel (Invitrogen) and analyzed by standard immunoblotting and imaged using Li—COR Odyssey CLx (LI-COR Biotechnology, Lincoln, NE). To access the protein degradation, the signal of target protein was normalized by the signal of ACBT and the signal of vehicle control was set as 100%. Primary antibodies used were: JAK1 (Cell Signaling #3332S), JAK2 (#3230S), JAK3 (#8827S), TYK2 (#9312S), GSPT1 (#14980S), CRBN (#71810S), IKZF1 (Santa Cruz Biotechnology, SC-398265) and ACBT (Santa Cruz Biotechnology, SC-47778).

[2] = tested on: MHH-CALL-4 cells; assay: Cytotoxicity assay (resazurin, 72 hours); parameters: AUC: unit not given beside the values; details: for pEC50: MHHCALL4, resazurin; for AUC: area under the dose-response curve
Protocol: Cytotoxicity assay: MHH-CALL-4 cells were maintained in RPMI1640 medium (Invitrogen) supplemented with 10% FBS (Hyclone), Penicillin/Streptomycin (100 units/mL) and Glutamine (100 μM). 2×10^5 cells were seeded in 100 μl medium/well in 96 well assay plates (Corning 3603). Assays were performed in triplicate; compounds to be screened were added to assay plates from DMSO stock solutions by pin transfer using 50SS pins (V&P Scientific). The assay plates incubated at 37° C. in 5% CO2 for 72 hours. Cells were then incubated for four hours with resazurin (Sigma) solution and read on a Synergy HT plate reader (Biotek, Winooski, VT). High-throughput assay data was analyzed using our in-house Robust Interpretation of Screening Experiments (RISE) application written in Pipeline Pilot (Biovia, v. 17.2.0) and the R program (R Core Team, 2013). All the AUC (area under the dose-response curve) per compound calculated from its dose response curve by RISE protocol. Selected data were plotted and analyzed by GraphPad Prism software v7 using non-linear regression curve fitting.

[3] = target: T2, JAK1 (Homo sapiens, UniProt P23458); assay: Western blot assay, JAK1 protein degradation; details: MHH-CALL-4 cells, vehicle control = 100%
T2 construct: endogenous in cells; host or cells: MHH-CALL-4
T2 sequence (P23458 whole entry): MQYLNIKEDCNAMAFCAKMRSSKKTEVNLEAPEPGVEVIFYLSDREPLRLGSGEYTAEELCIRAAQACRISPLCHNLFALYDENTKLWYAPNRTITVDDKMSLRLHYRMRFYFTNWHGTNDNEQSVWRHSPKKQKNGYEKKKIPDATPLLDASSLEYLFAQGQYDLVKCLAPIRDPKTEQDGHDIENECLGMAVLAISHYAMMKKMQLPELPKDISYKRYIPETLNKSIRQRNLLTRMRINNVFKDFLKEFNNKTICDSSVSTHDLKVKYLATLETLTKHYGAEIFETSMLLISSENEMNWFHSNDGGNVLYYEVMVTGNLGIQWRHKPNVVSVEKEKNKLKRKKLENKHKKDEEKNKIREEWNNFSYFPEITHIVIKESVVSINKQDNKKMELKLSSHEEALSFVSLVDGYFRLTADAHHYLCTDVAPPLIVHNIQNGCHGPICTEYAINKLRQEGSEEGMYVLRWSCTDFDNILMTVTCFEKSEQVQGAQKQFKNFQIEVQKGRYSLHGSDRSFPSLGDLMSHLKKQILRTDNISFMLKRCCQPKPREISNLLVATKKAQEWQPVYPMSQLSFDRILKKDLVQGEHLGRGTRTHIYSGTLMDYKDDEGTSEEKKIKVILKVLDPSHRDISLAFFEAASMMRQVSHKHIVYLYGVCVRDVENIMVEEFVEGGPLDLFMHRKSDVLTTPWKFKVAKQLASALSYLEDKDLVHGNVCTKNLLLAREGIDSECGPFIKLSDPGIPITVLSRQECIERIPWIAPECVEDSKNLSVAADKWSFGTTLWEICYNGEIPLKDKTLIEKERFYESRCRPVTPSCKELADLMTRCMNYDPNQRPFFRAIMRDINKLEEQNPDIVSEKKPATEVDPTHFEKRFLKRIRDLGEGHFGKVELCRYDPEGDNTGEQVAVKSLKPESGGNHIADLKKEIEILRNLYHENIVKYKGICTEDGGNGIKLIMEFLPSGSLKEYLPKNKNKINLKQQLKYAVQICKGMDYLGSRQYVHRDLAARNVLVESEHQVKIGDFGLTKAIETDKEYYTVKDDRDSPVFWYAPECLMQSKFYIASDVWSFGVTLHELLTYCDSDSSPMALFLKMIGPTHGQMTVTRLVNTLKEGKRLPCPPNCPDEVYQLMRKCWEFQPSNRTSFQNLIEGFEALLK
Protocol: as §1

[4] = target: T3, GSPT1 (Homo sapiens, UniProt P15170); assay: Western blot assay, GSPT1 neosubstrate degradation; details: MHHCALL4; 100 nM, 24 h; MHH-CALL-4 cells; vehicle control = 100%
T3 construct: endogenous in cells; host or cells: MHH-CALL-4
T3 sequence (P15170 whole entry): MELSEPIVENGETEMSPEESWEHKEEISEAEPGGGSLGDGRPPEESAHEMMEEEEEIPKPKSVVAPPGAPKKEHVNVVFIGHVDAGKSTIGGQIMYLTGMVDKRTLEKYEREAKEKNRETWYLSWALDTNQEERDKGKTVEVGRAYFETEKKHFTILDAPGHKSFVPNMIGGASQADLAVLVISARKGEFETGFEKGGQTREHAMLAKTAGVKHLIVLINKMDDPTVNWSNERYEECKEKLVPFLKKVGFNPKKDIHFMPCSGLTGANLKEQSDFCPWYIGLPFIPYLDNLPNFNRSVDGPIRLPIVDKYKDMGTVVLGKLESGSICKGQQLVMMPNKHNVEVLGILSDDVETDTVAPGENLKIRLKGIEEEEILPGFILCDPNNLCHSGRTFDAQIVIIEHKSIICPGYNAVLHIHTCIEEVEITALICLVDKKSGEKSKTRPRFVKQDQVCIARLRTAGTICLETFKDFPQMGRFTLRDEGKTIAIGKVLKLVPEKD
Protocol: as §1

[5] = tested on: JAK2; assay: Western blot assay, JAK2 protein degradation; details: MHH-CALL-4 cells, vehicle control = 100%
Protocol: as §1

Compound | remaining activity at 0.1 µM [1] [%] | pEC50 [2] | AUC [2] | Target Protein Degradation (% remaining at 100 nM, 24 h) JAK1 [3] [% remaining] | remaining activity at 0.1 µM [4] [%] | Target Protein Degradation (% remaining at 100 nM, 24 h) JAK2 [5] [% remaining]
N#CC[C@@H](C1CCCC1)n1cc(-c2nc(Nc3ccc(C(=O)NCCCN4CCN(c5ccc6c(c5)C(=O)N(C5CCC(=O)NC5=O)C6=O)CC4)cc3)nc3[nH]ccc23)cn1 (stereo partly drawn) [Compound 23] | 109 | 7.51 | 79 | 145 | 155 | 67
CCS(=O)(=O)C1CC(CC#N)(n2cc(-c3nc(Nc4ccc(C(=O)N5CCC(c6ccc7c(c6)C(=O)N(C6CCC(=O)NC6=O)C7=O)CC5)cc4)nc4[nH]ccc34)cn2)C1 (stereo not drawn) [Compound 27] | 92 | 6.54 | 143 | 107 | 118 | 68
CCS(=O)(=O)N1CC(CC#N)(n2cc(-c3nc(Nc4ccc(C(=O)NCCCN5CCC(c6ccc7c(c6)CN(C6CCC(=O)NC6=O)C7=O)CC5)cc4)nc4[nH]ccc34)cn2)C1 (stereo not drawn) [Compound 28] | 97 | 7.77 | 223.00 | 112 | 127 | 83
CCS(=O)(=O)C1CC(CC#N)(n2cc(-c3nc(Nc4ccc(C(=O)NC5CCN(c6ccc7c(c6)C(=O)N(C6CCC(=O)NC6=O)C7=O)CC5)cc4)nc4[nH]ccc34)cn2)C1 (stereo not drawn) [Compound 29] | 62 | 8.37 | 262 | 64 | 51 | 14
CCS(=O)(=O)C1CC(CC#N)(n2cc(-c3nc(Nc4ccc(C(=O)NC5CCN(c6cccc7c6C(=O)N(C6CCC(=O)NC6=O)C7=O)CC5)cc4)nc4[nH]ccc34)cn2)C1 (stereo not drawn) [Compound 30] | 77 | 9.52 | 215.00 | 105 | 140 | 88
CCS(=O)(=O)N1CC(CC#N)(n2cc(-c3nc(Nc4ccc(C(=O)NCC5CCN(c6ccc7c(c6)C(=O)N(C6CCC(=O)NC6=O)C7=O)CC5)cc4)nc4[nH]ccc34)cn2)C1 (stereo not drawn) [Compound 31] | 54 | 8.68 | 260 | 58 | 61 | 18
CCS(=O)(=O)N1CC(CC#N)(n2cc(-c3nc(Nc4ccc(C(=O)NCCC5CCN(c6ccc7c(c6)C(=O)N(C6CCC(=O)NC6=O)C7=O)CC5)cc4)nc4[nH]ccc34)cn2)C1 (stereo not drawn) [Compound 32] | 56 | 8.89 | 251 | 69 | 46 | 21
CCS(=O)(=O)N1CC(CC#N)(n2cc(-c3nc(Nc4ccc(C(=O)NCCCNC(=O)COc5cccc(C6CCC(=O)NC6=O)c5)cc4)nc4[nH]ccc34)cn2)C1 (stereo not drawn) [Compound 33] | 71 | 9.15 | 185 | 83 | 89 | 74
CCS(=O)(=O)N1CC(CC#N)(n2cc(-c3nc(Nc4ccc(C(=O)NCCCCCCCNc5cccc(C6CCC(=O)NC6=O)c5)cc4)nc4[nH]ccc34)cn2)C1 (stereo not drawn) [Compound 34] | 69 | 7.51 | 210 | 90 | 74 | 71
N#CC[C@H](C1CCCC1)n1cc(-c2nc(Nc3ccc(C(=O)NCCCCOc4ccc(C5CCC(=O)NC5=O)cc4)cc3)nc3[nH]ccc23)cn1 (stereo partly drawn) [Compound 36] | 63 | 8.27 | 129 | 118 | 94 | 32
CCCn1cc(-c2nc(Nc3ccc(C(=O)NCCN4CCN(c5ccc6c(c5)C(=O)N(C5CCC(=O)NC5=O)C6=O)CC4)cc3)nc3[nH]ccc23)cn1 (stereo not drawn) [Compound 39, N-(2-(4-(2-(2,6-dioxopiperidin-3-yl)-1,3-dioxoisoindolin-5-yl)piperazin-1-yl)ethyl)-4-((4-(1-propyl-1H-pyrazol-4-yl)-7H-pyrrolo[2,3-d]pyrimidin-2-yl)amino)benzamide] | 53 | 7.48 | 221 | 126 | 84 | 61
CCS(=O)(=O)N1CC(CC#N)(n2cc(-c3nc(Nc4ccc(C(=O)NCCN5CCN(c6cccc(C7CCC(=O)NC7=O)c6)CC5)cc4)nc4[nH]ccc34)cn2)C1 (stereo not drawn) [Compound 40, 4-((4-(1-(3-(cyanomethyl)-1-(ethylsulfonyl)azetidin-3-yl)-1H-pyrazol-4-yl)-7H-pyrrolo[2,3-d]pyrimidin-2-yl)amino)-N-(2-(4-(3-(2,6-dioxopiperidin-3-yl)phenyl)piperazin-1-yl)ethyl)benzamide] | 56 | 8.72 | 139 | 114 | 88 | 36
CCS(=O)(=O)N1CC(CC#N)(n2cc(-c3nc(Nc4ccc(C(=O)NCCCN5CCN(c6cccc(C7CCC(=O)NC7=O)c6)CC5)cc4)nc4[nH]ccc34)cn2)C1 (stereo not drawn) [Compound 42, 4-((4-(1-(3-(cyanomethyl)-1-(ethylsulfonyl)azetidin-3-yl)-1H-pyrazol-4-yl)-7H-pyrrolo[2,3-d]pyrimidin-2-yl)amino)-N-(3-(4-(3-(2,6-dioxopiperidin-3-yl)phenyl)piperazin-1-yl)propyl)benzamide] | 71 | 6.08 | 139 | 128 | 76 | 48
